# Assay results published in patent US11786507B2, “Methods of treating HIV-associated neurological disorders (HAND)” (priority 2020, dated 2023).
# Test system: microglia in CORT of Wt and iTat mice
# Test: Iba-1 immunohistochemistry (DAB), microglia morphology in CORT
# Assay type: in vivo, mouse
# Conditions: PAM-treated iTat mice
# Protocol: Mice were anesthetized using avertin (tribromoethanol) and transcardially perfused with first phosphate-buffered saline (PBS) and then 4% paraformaldehyde (PFA). Then, the brains were dissected out, fixed in 4% PFA at 4° C. overnight, dehydrated in 30% sucrose, embedded in OCT, sagittally sectioned (20 μm) using a cryostat, and preserved in a cryoprotectant containing 30% ethylene glycol, 30% glycerol, and 40% PBS. For staining, floating sections were permeabilized in 0.1% triton X-100 in PBS (PBST), blocked by 1% BSA in PBST, probed by Iba-1 antibody (Wako, catalog #019-19741, and 1:800 dilution), inactivated endogenous peroxidases in 1% hydrogen peroxide, probed again by a goat anti-rabbit secondary antibody (Southern Biotech, catalog #4030-05, and 1:200 dilution), and developed using a DAB kit (Abeam, catalog #ab103723). All images were taken using a Nikon Eclipse E800 microscope with a 20× objective and analyzed by the Cellprofiler program. Every section was averaged from three brain regions prefrontal, occipital and parietal cortex, and the average of the three sections was used to represent individual animals.
# To further determine the relationship between microglia activation, Tat neurotoxicity, and PAM/α7 nAChR, immunohistochemistry staining was performed on microglia in CORT of Wt and iTat mice treated with and without PAM (FIG. 1). […]
compound,measurement,value
"COc1cc(OC)c(NC(=O)Nc2cc(C)on2)cc1Cl [PAM, 1-(5-chloro-2,4-dimethoxy-phenyl)-3-(5-methyl-isoxazol-3-yl)-urea]",Number of microglia branches and endpoints,fewer branches and endpoints than PAM-treated Wt mice and DMSO-treated iTat mice
